From the NIST ThermoML archive (doi:10.1021/je7007632)
± gives the expanded uncertainty stated by the source.

Experiments:
[1] = refractive index (Na D-line) (dimensionless); xn = mol fraction of the nth substance listed; conditions: 101 kPa, Liquid, Standard Abbe refractometry
[2] = refractive index (Na D-line) (dimensionless); conditions: 101.33 kPa, Liquid, Standard Abbe refractometry

OCCCCO [1,4-butanediol] + NC=O
refractive index, [1]
Conditions	x2 = 0	x2 = 0.1052	x2 = 0.1988	x2 = 0.3041	x2 = 0.4002	x2 = 0.5009	x2 = 0.6022	x2 = 0.6992	x2 = 0.8051	x2 = 0.905
293.15 K	1.4451 ± 0.0004	1.4445 ± 0.0004	1.444 ± 0.0004	1.4437 ± 0.0004	1.4436 ± 0.0004	1.4437 ± 0.0004	1.444 ± 0.0004	1.4445 ± 0.0004	1.4452 ± 0.0004	1.4463 ± 0.0004
298.15 K	1.4431 ± 0.0004	1.4425 ± 0.0004	1.442 ± 0.0004	1.4418 ± 0.0004	1.4418 ± 0.0004	1.442 ± 0.0004	1.4424 ± 0.0004	1.4431 ± 0.0004	1.4439 ± 0.0004	1.4452 ± 0.0004
303.15 K	1.4411 ± 0.0004	1.4405 ± 0.0004	1.44 ± 0.0004	1.4399 ± 0.0004	1.44 ± 0.0004	1.4403 ± 0.0004	1.4408 ± 0.0004	1.4416 ± 0.0004	1.4426 ± 0.0004	1.4441 ± 0.0004
308.15 K	1.4391 ± 0.0004	1.4385 ± 0.0004	1.438 ± 0.0004	1.438 ± 0.0004	1.4382 ± 0.0004	1.4386 ± 0.0004	1.4392 ± 0.0004	1.4401 ± 0.0004	1.4413 ± 0.0004	1.443 ± 0.0004
313.15 K	1.4372 ± 0.0004	1.4365 ± 0.0004	1.4361 ± 0.0004	1.4361 ± 0.0004	1.4364 ± 0.0004	1.4369 ± 0.0004	1.4376 ± 0.0004	1.4386 ± 0.0004	1.44 ± 0.0004	1.4419 ± 0.0004
318.15 K	1.4352 ± 0.0004	1.4345 ± 0.0004	1.4341 ± 0.0004	1.4342 ± 0.0004	1.4345 ± 0.0004	1.4351 ± 0.0004	1.4359 ± 0.0004	1.437 ± 0.0004	1.4386 ± 0.0004	1.4407 ± 0.0004

CCC(C)O (centres undefined) [butan-2-ol]
[2]
Conditions	refractive index
293.15 K	1.3972 ± 0.0004
298.15 K	1.3951 ± 0.0004
303.15 K	1.3931 ± 0.0004
308.15 K	1.3911 ± 0.0004
313.15 K	1.3891 ± 0.0004
318.15 K	1.3871 ± 0.0004

CCCCO [butan-1-ol] + NC=O
[1], x2 = 0
Conditions	refractive index
293.15 K	1.3994 ± 0.0004
298.15 K	1.3974 ± 0.0004
303.15 K	1.3953 ± 0.0004
308.15 K	1.3933 ± 0.0004
313.15 K	1.3913 ± 0.0004
318.15 K	1.3893 ± 0.0004

NC=O [formamide] + CCCCO
refractive index, [1]
Conditions	x1 = 0.1093	x1 = 0.2057	x1 = 0.3138	x1 = 0.4104	x1 = 0.5115	x1 = 0.6124	x1 = 0.7081	x1 = 0.8123	x1 = 0.9086	x1 = 1
293.15 K	1.4023 ± 0.0004	1.4052 ± 0.0004	1.4086 ± 0.0004	1.4119 ± 0.0004	1.4158 ± 0.0004	1.4203 ± 0.0004	1.4252 ± 0.0004	1.4316 ± 0.0004	1.4389 ± 0.0004	1.4475 ± 0.0004
298.15 K	1.4003 ± 0.0004	1.4032 ± 0.0004	1.4067 ± 0.0004	1.4101 ± 0.0004	1.4141 ± 0.0004	1.4187 ± 0.0004	1.4238 ± 0.0004	1.4303 ± 0.0004	1.4378 ± 0.0004	1.4467 ± 0.0004
303.15 K	1.3983 ± 0.0004	1.4012 ± 0.0004	1.4048 ± 0.0004	1.4083 ± 0.0004	1.4124 ± 0.0004	1.4171 ± 0.0004	1.4223 ± 0.0004	1.429 ± 0.0004	1.4367 ± 0.0004	1.4459 ± 0.0004
308.15 K	1.3963 ± 0.0004	1.3992 ± 0.0004	1.4029 ± 0.0004	1.4065 ± 0.0004	1.4107 ± 0.0004	1.4155 ± 0.0004	1.4208 ± 0.0004	1.4277 ± 0.0004	1.4357 ± 0.0004	1.4451 ± 0.0004
313.15 K	1.3943 ± 0.0004	1.3973 ± 0.0004	1.4011 ± 0.0004	1.4047 ± 0.0004	1.409 ± 0.0004	1.4139 ± 0.0004	1.4194 ± 0.0004	1.4264 ± 0.0004	1.4345 ± 0.0004	1.4442 ± 0.0004
318.15 K	1.3923 ± 0.0004	1.3954 ± 0.0004	1.3992 ± 0.0004	1.4029 ± 0.0004	1.4073 ± 0.0004	1.4123 ± 0.0004	1.4179 ± 0.0004	1.4251 ± 0.0004	1.4334 ± 0.0004	1.4433 ± 0.0004

OCCCCO [1,4-butanediol]
[2]
Conditions	refractive index
293.15 K	1.4451 ± 0.0004
298.15 K	1.4431 ± 0.0004
303.15 K	1.4411 ± 0.0004
308.15 K	1.4391 ± 0.0004
313.15 K	1.4372 ± 0.0004
318.15 K	1.4352 ± 0.0004

NC=O [formamide]
[2]
Conditions	refractive index
293.15 K	1.4475 ± 0.0004
298.15 K	1.4467 ± 0.0004
303.15 K	1.4459 ± 0.0004
308.15 K	1.4451 ± 0.0004
313.15 K	1.4442 ± 0.0004
318.15 K	1.4433 ± 0.0004

NC=O [formamide] + CC(O)CCO
[1], x1 = 1
Conditions	refractive index
293.15 K	1.4475 ± 0.0004
298.15 K	1.4467 ± 0.0004
303.15 K	1.4459 ± 0.0004
308.15 K	1.4451 ± 0.0004
313.15 K	1.4442 ± 0.0004
318.15 K	1.4433 ± 0.0004

CCCCO [butan-1-ol]
[2]
Conditions	refractive index
293.15 K	1.3994 ± 0.0004
298.15 K	1.3974 ± 0.0004
303.15 K	1.3953 ± 0.0004
308.15 K	1.3933 ± 0.0004
313.15 K	1.3913 ± 0.0004
318.15 K	1.3893 ± 0.0004

CCC(C)O (centres undefined) [butan-2-ol] + NC=O
[1], x2 = 0
Conditions	refractive index
293.15 K	1.3972 ± 0.0004
298.15 K	1.3951 ± 0.0004
303.15 K	1.3931 ± 0.0004
308.15 K	1.3911 ± 0.0004
313.15 K	1.3891 ± 0.0004
318.15 K	1.3871 ± 0.0004

CC(O)CCO (centres undefined) [1,3-butanediol] + NC=O
refractive index, [1]
Conditions	x2 = 0	x2 = 0.1061	x2 = 0.2004	x2 = 0.3068	x2 = 0.4026	x2 = 0.5033	x2 = 0.6046	x2 = 0.7013	x2 = 0.8073	x2 = 0.9058
293.15 K	1.4412 ± 0.0004	1.441 ± 0.0004	1.4409 ± 0.0004	1.4411 ± 0.0004	1.4414 ± 0.0004	1.4419 ± 0.0004	1.4425 ± 0.0004	1.4434 ± 0.0004	1.4445 ± 0.0004	1.4459 ± 0.0004
298.15 K	1.4391 ± 0.0004	1.4389 ± 0.0004	1.4389 ± 0.0004	1.4391 ± 0.0004	1.4395 ± 0.0004	1.4401 ± 0.0004	1.4409 ± 0.0004	1.4419 ± 0.0004	1.4432 ± 0.0004	1.4448 ± 0.0004
303.15 K	1.437 ± 0.0004	1.4368 ± 0.0004	1.4369 ± 0.0004	1.4372 ± 0.0004	1.4377 ± 0.0004	1.4384 ± 0.0004	1.4393 ± 0.0004	1.4404 ± 0.0004	1.4419 ± 0.0004	1.4437 ± 0.0004
308.15 K	1.4349 ± 0.0004	1.4348 ± 0.0004	1.4349 ± 0.0004	1.4352 ± 0.0004	1.4358 ± 0.0004	1.4366 ± 0.0004	1.4377 ± 0.0004	1.4389 ± 0.0004	1.4406 ± 0.0004	1.4427 ± 0.0004
313.15 K	1.4329 ± 0.0004	1.4328 ± 0.0004	1.4329 ± 0.0004	1.4333 ± 0.0004	1.434 ± 0.0004	1.4349 ± 0.0004	1.436 ± 0.0004	1.4374 ± 0.0004	1.4393 ± 0.0004	1.4415 ± 0.0004
318.15 K	1.4308 ± 0.0004	1.4307 ± 0.0004	1.4309 ± 0.0004	1.4314 ± 0.0004	1.4321 ± 0.0004	1.4331 ± 0.0004	1.4344 ± 0.0004	1.4359 ± 0.0004	1.4379 ± 0.0004	1.4404 ± 0.0004

CC(O)CCO (centres undefined) [1,3-butanediol]
[2]
Conditions	refractive index
293.15 K	1.4412 ± 0.0004
298.15 K	1.4391 ± 0.0004
303.15 K	1.437 ± 0.0004
308.15 K	1.4349 ± 0.0004
313.15 K	1.4329 ± 0.0004
318.15 K	1.4308 ± 0.0004

NC=O [formamide] + OCCCCO
[1], x1 = 1
Conditions	refractive index
293.15 K	1.4475 ± 0.0004
298.15 K	1.4467 ± 0.0004
303.15 K	1.4459 ± 0.0004
308.15 K	1.4451 ± 0.0004
313.15 K	1.4442 ± 0.0004
318.15 K	1.4433 ± 0.0004

NC=O [formamide] + CCC(C)O
refractive index, [1]
Conditions	x1 = 0.1043	x1 = 0.2043	x1 = 0.3056	x1 = 0.4083	x1 = 0.5093	x1 = 0.6063	x1 = 0.7068	x1 = 0.8042	x1 = 0.9024	x1 = 1
293.15 K	1.3993 ± 0.0004	1.4017 ± 0.0004	1.4045 ± 0.0004	1.4079 ± 0.0004	1.4119 ± 0.0004	1.4165 ± 0.0004	1.4222 ± 0.0004	1.4289 ± 0.0004	1.4372 ± 0.0004	1.4475 ± 0.0004
298.15 K	1.3973 ± 0.0004	1.3996 ± 0.0004	1.4025 ± 0.0004	1.4061 ± 0.0004	1.4102 ± 0.0004	1.4149 ± 0.0004	1.4207 ± 0.0004	1.4276 ± 0.0004	1.4361 ± 0.0004	1.4467 ± 0.0004
303.15 K	1.3953 ± 0.0004	1.3977 ± 0.0004	1.4007 ± 0.0004	1.4043 ± 0.0004	1.4085 ± 0.0004	1.4133 ± 0.0004	1.4193 ± 0.0004	1.4263 ± 0.0004	1.435 ± 0.0004	1.4459 ± 0.0004
308.15 K	1.3933 ± 0.0004	1.3958 ± 0.0004	1.3989 ± 0.0004	1.4026 ± 0.0004	1.4068 ± 0.0004	1.4118 ± 0.0004	1.4179 ± 0.0004	1.4251 ± 0.0004	1.434 ± 0.0004	1.4451 ± 0.0004
313.15 K	1.3913 ± 0.0004	1.3939 ± 0.0004	1.397 ± 0.0004	1.4008 ± 0.0004	1.4051 ± 0.0004	1.4102 ± 0.0004	1.4164 ± 0.0004	1.4237 ± 0.0004	1.4328 ± 0.0004	1.4442 ± 0.0004
318.15 K	1.3893 ± 0.0004	1.3919 ± 0.0004	1.3951 ± 0.0004	1.399 ± 0.0004	1.4034 ± 0.0004	1.4086 ± 0.0004	1.4149 ± 0.0004	1.4224 ± 0.0004	1.4317 ± 0.0004	1.4433 ± 0.0004
